One data set deals with NALM-6 cells. The data set can be described thus: shRNA screen: selection of infected NALM-6 cells with dex, viability after each round. As to conditions: for viability at 0.05 µM: Homo sapiens, 50 nM dexamethasone. The format is cell-based, human. The protocol:
Transduction: NALM-6 cells were grown in T-175 flasks maintaining a cell density below 2 million cells/ml until a sufficient number of cells were obtained. In order to obtain a sufficient number of cells infected with each shRNA to measure both enrichment and depletion in response to dex selection, we sought to infect >1000 cells with each shRNA. In order to minimize double infection, we targeted an infection rate of ˜30%. For the Cancer library, we estimated that for 1000× coverage of 54,775 shRNAs at a 30% infection rate, we would have to start with ˜200 million cells. To ensure optimal infection, NALM-6 cells were plated at density of 1.5 million cells/ml in 6 well plates. Virus was added at a ratio of 1:10 viral supernatant/NALM-6 culture volume. Cells were the spinfected at 1000×g, 33° C., for 2 hours in the presence of 8 µg/ml polybrene. Cells were then washed in PBS, resuspended in fresh RPMI+10% FBS, and allowed to recover. Our actual infection rate was ˜70%, as measured by flow cytometry using the mCherry marker of the pMK1098 vector, for an approximate coverage of 2000 cells for each shRNA. Cells were then selected for infection using 0.5 µg/ml puromycin for 2 days, washed, and allowed to recover. The infected cells were then expanded and split into 5 pools: Infected (Time 0 or T0), Infected that would be untreated (TF), and three pools that would be treated with dex (R1-3). T0 and TF was composed of 100 million cells. T0 was frozen immediately, and TF was allowed to grow to a density no greater than 3 million cells/ml through the course of the experiment. Since we expected ˜80% death upon treatment, we started with 500 million cells each for R1-3.
Selection: Previous attempts at the screen had been hampered by inconsistent infection and selection with dex. We therefore decided to split TF and R1-3 into two experiments and treat with 50 nM dex, which kills ˜80% of NALM-6 cells in 3 days, and 1 pM dex, which kills >90%. TF samples were treated with equal volumes of DMSO vehicle. A separate TF sample was culture for both the 50 nM and 1 pM experiments. Cells were treated with each of these concentrations for three days, washed, allowed to recover, then treated two more times. From infection to the end of the experiment took 35 days for 50 nM dex and 46 days for 1 pM.
AGEK Screen: Based on the results of the Cancer panel screen, we elected to screen the three other panels (Apoptosis, Gene Expression, Kinases) under 50 nM selection by dex. The screen was performed largely as described above, but our infection rate was <30% for a coverage of ˜900 cells/shRNA.

Another data set deals with NALM-6. The data set can be described thus: Cell death assay (PrestoBlue viability, 3 days). The format is cell-based. As to conditions: Homo sapiens. The protocol:
Cell death assays: We used PrestoBlue to measure cell viability in response to knockdown and treatment. Cells were grown to a density of 250,000 cell/ml, then dispensed into black tissue culture plates and grown overnight. In the morning, cells were treated. For both CAL-101 (Selleckchem, S2226) and dex (Sigma, D4902), viability was measured after 3 days. As PrestoBlue measures NADPH/NADH metabolites, the balance of which can be affected by GC treatment, we performed frequent cell count spot checks manually by trypan blue exclusion to ensure that fluorescence measurements reflected true viability. Both CAL-101 and dex were dissolved in ethanol, and used 1:1000 in cell culture for a final ethanol concentration of 0.1%. […] Viabilities and EC50 were then calculated using four parameter non-least squares fitting using Prism 6. qPCR of Causative genes: Cells were grown to a density of 1 million cells/ml, then aliquoted into 6 well plates in the afternoon, then grown overnight. […]
The optimal signal was determined by incubating cells with 1 ^M dex for 0, 4, 8, and 24 hours. […] Each experiment was performed at least three times, and analyzed using GraphPad (Prism 6). Significant differences between drug and control and between either drug alone and combinations was determined by two sided Student's t-test (P-Value<0.05). […]

The subject of another data set is RCH-ACV. The data set is described as follows: Cell death assay (PrestoBlue viability, 3 days). Type of data set: cell-based, human. The protocol: (§1) Cell death assays: We used PrestoBlue to measure cell viability in response to knockdown and treatment. Cells were grown to a density of 250,000 cell/ml, then dispensed into black tissue culture plates and grown overnight. In the morning, cells were treated. For both CAL-101 (Selleckchem, S2226) and dex (Sigma, D4902), viability was measured after 3 days. As PrestoBlue measures NADPH/NADH metabolites, the balance of which can be affected by GC treatment, we performed frequent cell count spot checks manually by trypan blue exclusion to ensure that fluorescence measurements reflected true viability. Both CAL-101 and dex were dissolved in ethanol, and used 1:1000 in cell culture for a final ethanol concentration of 0.1%. Combination treatments were performed in triplicate in 384 well plates with 20 dilutions of dex from 10^M to 0 and 9 dilutions of CAL-101 from 10^M to 0. Viabilities and EC50 were then calculated using four parameter non-least squares fitting using Prism 6. qPCR of Causative genes: Cells were grown to a density of 1 million cells/ml, then aliquoted into 6 well plates in the afternoon, then grown overnight. Cells were then treated with the drugs and times indicated, at which point cells were spun down at 400 g for 5 minutes, the medium aspirated, and the pellet resuspended in 0.7 ml Qiazol/Trizol and frozen. RNA was then isolated using the miRNAeasy protocol. cDNA was then prepared form 1^g of RNA suing SuperScript3, and qPCR performed using BioRad iQ mix. Primers for qPCR were designed using the IDT web site, then tested for each gene. […] Expression levels for each gene were corrected for primer efficiency, normalized to RPL19, then compared to controls (Pfaffl, 2001).
(§2) The optimal signal was determined by incubating cells with 1 ^M dex for 0, 4, 8, and 24 hours. […] Cells were incubated with dex alone, CAL-101 alone, and in combination for 24 hours, then harvested and qPCR performed as described above. Each experiment was performed at least three times, and analyzed using GraphPad (Prism 6). Significant differences between drug and control and between either drug alone and combinations was determined by two sided Student's t-test (P-Value<0.05).
(§3) Three cell lines (NALM6, SUP-B15, and RCH-ACV), one resistant patient sample (HM3101), and one relapsed Phlike xenograft (ALL121) were incubated with increasing concentrations of dex or CAL-101 for 3 days. Cell viability was measured by PrestoBlue staining. Curves, values, and errors are based on at least 3 replicates. Bar plot of the EC50, calculated by four-parameter least-squares fitting (Both plotted and calculated in GraphPad Prism).

A further data set has as its system SUP-B15. The data set can be described thus: Cell death assay (PrestoBlue viability, 3 days). The format is cell-based, human. As to conditions: Homo sapiens. On the procedure:
as §1, §2, §3

Data set [1] deals with relapsed B-ALL cells (ALL121). The data set can be described thus: PDX model of ALL: NSG mice engrafted with ALL121, spleen size and human ALL cells in spleen. The format is in vivo. As to conditions: dex monotherapy 7.5 mg/kg daily, two weeks.
Description: As proof of concept, we tested this combination in a PDX model of ALL.
The subject of data set [2] is LAX7R and LAX56 primary human B-ALL cells. The data set can be described thus: Survival of primary B-ALL cells co-cultured with OP-9 feeder cells (Annexin V/7AAD). To be noted: 100-200 nM Dex alone, 3 or 5 days. Type of data set: cell-based. The protocol: Primary ALL cells (LAX7R and LAX56) were established from mouse xenografts derived from patient samples (Adam et al., 2017; Hsieh et al., 2013). They were cultured in 24 well tissue-culture plates on irradiated OP-9 cells with growth medium containing MEM-α with 20% heat-inactivated fetal bovine serum, and 100 IU/ml penicillin and 100 μg/ml streptomycin. On day 3 and day 5 after the addition of drugs, ALL cells were collected, and apoptosis was assessed using PE Annexin V Apoptosis Detection Kit with 7-AAD.
As shown FIGS. 41A-1, 41A-2, 41B-1, and 41B-2, LAX7R (FIGS. 41A-1 and 41A-2) or LAX56 (FIGS. 41B-1 and 41B-2) primary human B-ALL cells were co-cultured with OP-9 feeder cells for 3 days (left) or 5 days (right) in the presence of the indicated drugs, and cell survival was determined by staining with Annexin/7AAD. p-value was calculated using a paired t-test, and different symbols were used to indicate p-values between different groups.+indicates statistical significance (+p≤0.05, ++p≤0.01 and + + + p≤0.001) between Dexamethasone or AZD2811 treated group and DMSO control group; # indicates statistical significance (#p≤0.05, ##p≤0.01 and # # # p≤0.001) between AZD2811+Dexamethasone combination group and AZD2811 group; * indicates statistical difference (*p≤0.05, **p≤0.01, * * *p≤0.001) between combination group and respective Dexamethasone treated groups. Values shown are mean and SD for 3 biological replicates, which are representative of 3 independent experiments.

Each structure is given as a SMILES string.

Consider `C[C@@H]1C[C@H]2[C@@H]3CCC4=CC(=O)C=C[C@]4(C)[C@@]3(F)[C@@H](O)C[C@]2(C)[C@@]1(O)C(=O)CO` [dex, dexamethasone], for which the NALM-6 cells killed in the data set on NALM-6 cells (1 pM dex) is listed as > 90%; with NALM-6 cells (50 nM dex, 3 days) it was ~80%. Further, the viability at 0.05 µM came out at 52% in the data set with NALM-6 cells (NALM-6, Apoptosis, Gene Expression, and Kinase Panels, treatment number 1); 66% in the data set on NALM-6 cells (NALM-6, Apoptosis, Gene Expression, and Kinase Panels, treatment number 2); 65% in the data set on NALM-6 cells (NALM-6, Apoptosis, Gene Expression, and Kinase Panels, treatment number 3); 18% in the data set on NALM-6 cells (NALM-6, Cancer Panel, treatment number 1); 72% in the data set on NALM-6 cells (NALM-6, Cancer Panel, treatment number 2); 58% with NALM-6 cells (NALM-6, Cancer Panel, treatment number 3). The EC50 with NALM-6 (NALM-6, 72 h, NALM6, viability after 3 days, read-out: EC50 for dex) is 3.9 nM; with RCH-ACV (Homo sapiens, 72 h, viability after 3 days, estimate, read-out: EC50 for dex), 500 nM; in the data set on SUP-B15 (72 h, SUP-B15, viability after 3 days, read-out: EC50 for dex), 1.6 nM. Besides, the EC90 in the data set with NALM-6 (NALM-6, read-out: approximately the EC90 for dex) is ~62.5 nM; with SUP-B15 (SUP-B15, read-out: approximately the EC90 for dex), ~4 nM. For the same molecule, in the data set on RCH-ACV (even at the highest dex concentrations), the viability maintained is ~50%. Further, in data set [1], the “effect on spleens (spleen size)” value was “no effect”. For the same molecule, the cell survival in data set [2] is on record as 20-60%.

In general, viability refers to a per cent measure of how many cells are alive, often set against a control. Higher therefore signals less harm to the cells. In general, EC50 refers to the concentration needed to bring the measured effect to its halfway point. As a reminder, the EC90 is the concentration needed for an effect of 90%.

The values are drawn from US20200181284A1, “EPIGENETIC INHIBITORS FOR SENSITIZING HEMATOLOGIC OR OTHER MALIGNANCIES TO GLUCOCORTICOID THERAPY” (UNIVERSITY OF SOUTHERN CALIFORNIA, priority 2017, published 2020).
